Read-outs that look alike come from different tables or passages of the source. Marks after values point to notes of the source that are not given here.
Assays:
[1] = tested on: Influenza A/Victoria/3/75 (H3N2) virus; type: in vivo, BALB/c mice
[2] = tested on: Influenza A/Vietnam/1203/2004 (H5N1) virus; type: in vivo, BALB/c mice; details: 10 mg/kg p.o. twice a day for 10 days; Treatment (+48 h)
influenza B virus = assay: Antiviral activity in MDCK cells measured by ATP levels (CellTiter-Glo), influenza B; type: cell-based; details: read-out: Cell Protection Assay EC50 ± SD
influenza A virus = assay: Mouse influenza A model: prophylactic dose response and delayed treatment, survival and body weight loss; type: in vivo, mice
Text: The prophylactic dose response of Compound (1) was investigated in the mouse influenza A model. […] All of the mice that received vehicle alone succumbed to the infection by study day 9 and had lost, on average, ˜32% of their body weight (BW).
All vehicle controls succumbed to disease by study days 8 or 9.

influenza A = assay: Mouse model of influenza A: lung viral titers; type: in vivo, mice; details: for Log10 Reduction vs. Vehicle: study day 6; for Lung Viral Titer: titers on study day 6
influenza virus = type: in vivo, mice
[3] = tested on: influenza A/Wisconsin/67/2005 (H3N2) challenge strain virus; assay: Human live attenuated influenza challenge: nasal viral shedding by TCID50 cell culture assay; type: in vivo, healthy volunteers (humans)
Method: (§1) Subjects underwent thrice daily nasal swabs, and kept thrice daily score cards for clinical symptoms from Days 1-7, and were discharged from the facility on Day 8, with safety follow-up at approximately Day 28. Nasal swabs were assayed for influenza virus in cell culture (primary analysis) and by qRT-PCR (secondary analysis).
Additional FA group analyses were performed (data not shown).

[4] = tested on: influenza A/Wisconsin/67/2005 (H3N2) challenge strain virus; assay: Human influenza challenge: nasal influenza shedding by qRT-PCR; type: in vivo, healthy volunteers (humans)
Method: as §1

[5] = tested on: influenza A/Wisconsin/67/2005 (H3N2) challenge strain virus; assay: Human influenza challenge: rates of seroconversion; type: in vivo, healthy volunteers (humans); details: for Serology Sero-conversion, n/N: ≥4-fold increase in anti-influenza antibody titer at Follow-up Visit vs baseline
[6] = 1 mg/kg p.o. twice a day for 10 days starting 2 hours prior to virus exposure
[7] = 3 mg/kg p.o. twice a day for 10 days starting 2 hours prior to virus exposure
[8] = 10 mg/kg p.o. twice a day for 10 days starting 2 hours prior to virus exposure
[9] = treatment start +24 h relative to infection, 1 mg/kg BID
[10] = treatment start +24 h relative to infection, 3 mg/kg BID
[11] = treatment start +24 h relative to infection, 10 mg/kg BID
[12] = treatment start +48 h relative to infection, 1 mg/kg BID
[13] = treatment start +48 h relative to infection, 3 mg/kg BID
[14] = treatment start +48 h relative to infection, 10 mg/kg BID
[15] = treatment start +72 h relative to infection, 1 mg/kg BID
[16] = treatment start +72 h relative to infection, 3 mg/kg BID
[17] = treatment start +72 h relative to infection, 10 mg/kg BID
[18] = treatment start +96 h relative to infection, 3 mg/kg BID
[19] = treatment start +96 h relative to infection, 10 mg/kg BID
[20] = treatment start +120 h relative to infection, 3 mg/kg BID
[21] = treatment start +120 h relative to infection, 10 mg/kg BID
[22] = treatment start −2 h relative to infection, 0.1 mg/kg BID
[23] = treatment start −2 h relative to infection, 0.3 mg/kg BID
[24] = treatment start −2 h relative to infection, 1 mg/kg BID
[25] = treatment start −2 h relative to infection, 3 mg/kg BID
[26] = treatment start −2 h relative to infection, 10 mg/kg BID
[27] = Study 1, 30 mg/kg BID from 24 h post infection for 5 days
[28] = Study 2, 3 mg/kg BID from 24 h post infection for 5 days
[29] = Study 2, 10 mg/kg BID from 24 h post infection for 5 days
[30] = Study 2, 30 mg/kg BID from 24 h post infection for 5 days
[31] = Pooled Compound (1) dose groups (N = 52)
[32] = Pooled Compound (1) dose groups

O=C(O)[C@H]1[C@H]2CC[C@H](CC2)[C@@H]1Nc1nc(-c2c[nH]c3ncc(F)cc23)ncc1F [Compound (1)]
MDD ± SD (mean day of death of mice that died on or before day 21) [1, 6]: 9.8
Mean Lung Parameters (Day 6): Score (hemorrhage score 0-4) [1, 6]: 3.2
Mean Lung Parameters (Day 6): Virus Titer [1, 6]: 7.3 Log10 CCID50/g
Mean Lung Parameters (Day 6): Weight [1, 6]: 274 mg
Survivors/Total [1, 6]: 4/10
Mean Lung Parameters (Day 6): Score (hemorrhage score 0-4) [1, 7]: 3.3
Mean Lung Parameters (Day 6): Virus Titer [1, 7]: 7.2 Log10 CCID50/g
Mean Lung Parameters (Day 6): Weight [1, 7]: 260 mg
Mean Lung Parameters (Day 6): Score (hemorrhage score 0-4) [1, 8]: 0.1
Mean Lung Parameters (Day 6): Virus Titer [1, 8]: 6.1 Log10 CCID50/g
Mean Lung Parameters (Day 6): Weight [1, 8]: 164 mg
MDD ± SD (mean day of death of mice that died on or before day 21) [2]: >21
Mean Lung Parameters (Day 6): Virus Titer [2]: 3.75 ± 0.94 Log10 CCID50/g
Survivors/Total [2]: 10/10
EC50 (influenza B virus; B/Russia/69): > 0.01 µM
EC50 (influenza B virus; Influenza B virus, MDCK, B/Lee/40): > 0.01 µM
survival (mice) (influenza A virus; 0.3 mg/kg BID for 10 days, initiated 2 h prior to infection): 2/8
Percent Body Weight Loss on Study Day 8 (influenza A virus; [9]): −23.4%
Percent Survival (influenza A virus; [9]): 100%
Percent Body Weight Loss on Study Day 8 (influenza A virus; [10]): −14.2%
Percent Survival (influenza A virus; [10]): 100%
Percent Body Weight Loss on Study Day 8 (influenza A virus; [11]): −6.2%
Percent Survival (influenza A virus; [11]): 100%
Percent Body Weight Loss on Study Day 8 (influenza A virus; [12]): −22.5%
Percent Survival (influenza A virus; [12]): 100%
Percent Body Weight Loss on Study Day 8 (influenza A virus; [13]): −10.9%
Percent Survival (influenza A virus; [13]): 100%
Percent Body Weight Loss on Study Day 8 (influenza A virus; [14]): −7.1%
Percent Survival (influenza A virus; [14]): 100%
Percent Body Weight Loss on Study Day 8 (influenza A virus; [15]): −29.4%
Percent Survival (influenza A virus; [15]): 100%
Percent Body Weight Loss on Study Day 8 (influenza A virus; [16]): −23.2%
Percent Survival (influenza A virus; [16]): 100%
Percent Body Weight Loss on Study Day 8 (influenza A virus; [17]): −17.4%
Percent Survival (influenza A virus; [17]): 100%
Percent Body Weight Loss on Study Day 8 (influenza A virus; [18]): −27.3%
Percent Survival (influenza A virus; [18]): 100%
Percent Body Weight Loss on Study Day 8 (influenza A virus; [19]): −25.5%
Percent Survival (influenza A virus; [19]): 100%
Percent Body Weight Loss on Study Day 8 (influenza A virus; [20]): −32.6%
Percent Survival (influenza A virus; [20]): 12.5%
Percent Body Weight Loss on Study Day 8 (influenza A virus; [21]): −34.4%
Percent Survival (influenza A virus; [21]): 37.5%
Percent Body Weight Loss on Study Day 8 (influenza A virus; [22]): −31.9%
Percent Survival (influenza A virus; [22]): 0%
Percent Body Weight Loss on Study Day 8 (influenza A virus; [23]): −30.4%
Percent Survival (influenza A virus; [23]): 25%
Percent Body Weight Loss on Study Day 8 (influenza A virus; [24]): −16.8%
Percent Survival (influenza A virus; [24]): 100%
Percent Body Weight Loss on Study Day 8 (influenza A virus; [25]): −8.7%
Percent Survival (influenza A virus; [25]): 100%
Percent Body Weight Loss on Study Day 8 (influenza A virus; [26]): −2.8%
Percent Survival (influenza A virus; [26]): 100%
Log10 Reduction vs. Vehicle (influenza A; [27]): −2.25***
Lung Viral Titer (influenza A; [27]): 3.95 Log10 TCID50
Log10 Reduction vs. Vehicle (influenza A; [28]): −1.04
Lung Viral Titer (influenza A; [28]): 5.24*** Log10 TCID50
Log10 Reduction vs. Vehicle (influenza A; [29]): −1.08
Lung Viral Titer (influenza A; [29]): 5.20*** Log10 TCID50
Log10 Reduction vs. Vehicle (influenza A; [30]): −1.75
Lung Viral Titer (influenza A; [30]): 4.53*** Log10 TCID50
half maximal reduction in lung titers (influenza virus; mice infected 24 h, then dosed for 24 h (q6 h, q12 h, q24 h)): 2-3 log
serum-shifted EC99 (influenza virus; plasma concentration near which half maximal reduction in lung titers occurs): 100 ng/mL
Viral Shedding by Tissue Culture AUC, median ([3]; 100 mg QD (N = 12)): 1.25 log10 TCID50 mL*Day
Viral Shedding by Tissue Culture Duration, median ([3]; 100 mg QD (N = 12)): 0.96 days
Viral Shedding by Tissue Culture Peak, mean ([3]; 100 mg QD (N = 12)): 2.09 log10 TCID50/mL
Viral Shedding by Tissue Culture AUC, median ([3]; 400 mg QD (N = 12)): 0.70 log10 TCID50 mL*Day
Viral Shedding by Tissue Culture Duration, median ([3]; 400 mg QD (N = 12)): 1.60 days
Viral Shedding by Tissue Culture Peak, mean ([3]; 400 mg QD (N = 12)): 1.73 log10 TCID50/mL
Viral Shedding by Tissue Culture AUC, median ([3]; 900/600 mg (N = 14)): 3.20 log10 TCID50 mL*Day
Viral Shedding by Tissue Culture Duration, median ([3]; 900/600 mg (N = 14)): 2.71 days
Viral Shedding by Tissue Culture Peak, mean ([3]; 900/600 mg (N = 14)): 2.68 log10 TCID50/mL
Viral Shedding by Tissue Culture AUC, median ([3]; 1200/600 mg (N = 14)): 0.35 log10 TCID50 mL*Day
Viral Shedding by Tissue Culture Duration, median ([3]; 1200/600 mg (N = 14)): 0.00 days
Viral Shedding by Tissue Culture Peak, mean ([3]; 1200/600 mg (N = 14)): 1.00 log10 TCID50/mL
Viral Shedding by Tissue Culture AUC, median [3, 31]: 0.65 log10 TCID50 mL*Day
Viral Shedding by Tissue Culture Duration, median [3, 31]: 0.71 days
Viral Shedding by Tissue Culture Peak, mean [3, 31]: 1.87 log10 TCID50/mL
Viral Sheeding by qRT-PCR AUC, median ([4]; 100 mg QD (N = 12)): 6.05 log10 copies/mL*Day
Viral Sheeding by qRT-PCR Duration, median ([4]; 100 mg QD (N = 12)): 0.96 days
Viral Sheeding by qRT-PCR Peak, mean ([4]; 100 mg QD (N = 12)): 4.36 log10 TCID50/mL
Viral Sheeding by qRT-PCR AUC, median ([4]; 400 mg QD (N = 12)): 4.90 log10 copies/mL*Day
Viral Sheeding by qRT-PCR Duration, median ([4]; 400 mg QD (N = 12)): 1.36 days
Viral Sheeding by qRT-PCR Peak, mean ([4]; 400 mg QD (N = 12)): 3.90 log10 TCID50/mL
Viral Sheeding by qRT-PCR AUC, median ([4]; 900/600 mg (N = 14)): 10.65 log10 copies/mL*Day
Viral Sheeding by qRT-PCR Duration, median ([4]; 900/600 mg (N = 14)): 2.39 days
Viral Sheeding by qRT-PCR Peak, mean ([4]; 900/600 mg (N = 14)): 5.08 log10 TCID50/mL
Viral Sheeding by qRT-PCR AUC, median ([4]; 1200/600 mg (N = 14)): 0.45 log10 copies/mL*Day
Viral Sheeding by qRT-PCR Duration, median ([4]; 1200/600 mg (N = 14)): 0.00 days
Viral Sheeding by qRT-PCR Peak, mean ([4]; 1200/600 mg (N = 14)): 2.37 log10 TCID50/mL
Viral Sheeding by qRT-PCR AUC, median [4, 31]: 3.45 log10 copies/mL*Day
Viral Sheeding by qRT-PCR Duration, median [4, 31]: 0.71 days
Viral Sheeding by qRT-PCR Peak, mean [4, 31]: 3.91 log10 TCID50/mL
Serology Sero-conversion (%) ([5]; 100 mg QD): (69%)
Serology Sero-conversion, n/N ([5]; 100 mg QD): 11/16
Serology Sero-conversion (%) ([5]; 400 mg QD): (47%)
Serology Sero-conversion, n/N ([5]; 400 mg QD): 9/19
Serology Sero-conversion (%) ([5]; 900/600 mg): (68%)
Serology Sero-conversion, n/N ([5]; 900/600 mg): 13/19
Serology Sero-conversion (%) ([5]; 1200/600 mg): (67%)
Serology Sero-conversion, n/N ([5]; 1200/600 mg): 12/18
Serology Sero-conversion (%) [5, 32]: (63%)
Serology Sero-conversion, n/N [5, 32]: 45/72

From patent publication US11345700B2, “Methods of preparing inhibitors of influenza viruses replication” (priority 2013, dated 2022)
